Results: PubChem BioAssay (NCI)
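The compound was tested at five concentrations on cells cultured in 96-well plates, with a 48-hour exposure period. At the GI50, growth is halved. At the TGI there is no net growth.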

Experiments:
Assay in all cases: NCI anticancer screen, dose series, 48 h; in the data active means GI50 below about 0.43 µM; inactive means the rest
ACHN renal = system: ACHN renal
IGROV1 ovarian = system: IGROV1 ovarian
PC-3 prostate = system: PC-3 prostate
SK-OV-3 ovarian = system: SK-OV-3 ovarian
SF-539 CNS = system: SF-539 CNS
T-47D breast = system: T-47D breast
DU-145 prostate = system: DU-145 prostate
MOLT-4 leukemia = system: MOLT-4 leukemia
K-562 leukemia = system: K-562 leukemia
UACC-62 melanoma = system: UACC-62 melanoma
COLO 205 colon = system: COLO 205 colon
786-0 renal = system: 786-0 renal
HL-60(TB) leukemia = system: HL-60(TB) leukemia
HCT-15 colon = system: HCT-15 colon
NCI-H226 lung = system: NCI-H226 lung
LOX IMVI melanoma = system: LOX IMVI melanoma
HCT-116 colon = system: HCT-116 colon
UO-31 renal = system: UO-31 renal
HCC-2998 colon = system: HCC-2998 colon
HT29 colon = system: HT29 colon
RPMI-8226 leukemia = system: RPMI-8226 leukemia
MALME-3M melanoma = system: MALME-3M melanoma
SNB-19 CNS = system: SNB-19 CNS
MDA-MB-435 = system: MDA-MB-435
BT-549 breast = system: BT-549 breast
OVCAR-4 ovarian = system: OVCAR-4 ovarian
M14 melanoma = system: M14 melanoma
SK-MEL-28 melanoma = system: SK-MEL-28 melanoma
RXF 393 renal = system: RXF 393 renal
HOP-92 NSCLC = system: HOP-92 NSCLC
OVCAR-8 ovarian = system: OVCAR-8 ovarian
SN12C renal = system: SN12C renal
TK-10 renal = system: TK-10 renal
SF-295 CNS = system: SF-295 CNS
CCRF-CEM leukemia = system: CCRF-CEM leukemia
OVCAR-3 ovarian = system: OVCAR-3 ovarian
EKVX NSCLC = system: EKVX NSCLC
NCI/ADR-RES ovarian = system: NCI/ADR-RES ovarian
SNB-75 CNS = system: SNB-75 CNS
UACC-257 melanoma = system: UACC-257 melanoma
MDA-MB-231 breast = system: MDA-MB-231 breast
SR leukemia = system: SR leukemia
U251 CNS = system: U251 CNS
MCF7 breast = system: MCF7 breast
HOP-62 NSCLC = system: HOP-62 NSCLC
KM12 colon = system: KM12 colon
SK-MEL-5 melanoma = system: SK-MEL-5 melanoma
SF-268 CNS = system: SF-268 CNS
A549 NSCLC = system: A549 NSCLC
NCI-H23 lung = system: NCI-H23 lung
A498 renal = system: A498 renal
SW-620 colon = system: SW-620 colon
NCI-H460 lung = system: NCI-H460 lung
OVCAR-5 ovarian = system: OVCAR-5 ovarian
NCI-H522 lung = system: NCI-H522 lung
HS 578T breast = system: HS 578T breast
CAKI-1 renal = system: CAKI-1 renal
SK-MEL-2 melanoma = system: SK-MEL-2 melanoma

Cc1cc([N+](=O)[O-])c(NS(=O)(=O)c2cccc(C(=O)O)c2)cc1-c1cccnc1
inactive: GI50 (ACHN renal) > 100 µM | GI50 (IGROV1 ovarian) > 100 µM | GI50 (PC-3 prostate) > 100 µM | GI50 (SK-OV-3 ovarian) > 100 µM | GI50 (SF-539 CNS) > 100 µM | GI50 (T-47D breast) > 100 µM | GI50 (DU-145 prostate) > 100 µM | GI50 (MOLT-4 leukemia) > 100 µM | GI50 (K-562 leukemia) > 100 µM | GI50 (UACC-62 melanoma) > 100 µM | GI50 (COLO 205 colon) > 100 µM | GI50 (786-0 renal) > 100 µM | GI50 (HL-60(TB) leukemia) > 100 µM | GI50 (HCT-15 colon) > 100 µM | GI50 (NCI-H226 lung) > 100 µM | GI50 (LOX IMVI melanoma) > 100 µM | GI50 (HCT-116 colon) > 100 µM | GI50 (UO-31 renal) > 100 µM | GI50 (HCC-2998 colon) > 100 µM | GI50 (HT29 colon) > 100 µM | GI50 (RPMI-8226 leukemia) > 100 µM | GI50 (MALME-3M melanoma) > 100 µM | GI50 (SNB-19 CNS) > 100 µM | GI50 (MDA-MB-435) > 100 µM | GI50 (BT-549 breast) > 100 µM | GI50 (OVCAR-4 ovarian) > 100 µM | GI50 (M14 melanoma) > 100 µM | GI50 (SK-MEL-28 melanoma) > 100 µM | GI50 (RXF 393 renal) > 100 µM | GI50 (HOP-92 NSCLC) > 100 µM | GI50 (OVCAR-8 ovarian) > 100 µM | GI50 (SN12C renal) > 100 µM | GI50 (TK-10 renal) > 100 µM | GI50 (SF-295 CNS) > 100 µM | GI50 (CCRF-CEM leukemia) > 100 µM | GI50 (OVCAR-3 ovarian) > 100 µM | GI50 (EKVX NSCLC) > 100 µM | GI50 (NCI/ADR-RES ovarian) > 100 µM | GI50 (SNB-75 CNS) > 100 µM | GI50 (UACC-257 melanoma) > 100 µM | GI50 (MDA-MB-231 breast) > 100 µM | GI50 (SR leukemia) > 100 µM | GI50 (U251 CNS) > 100 µM | GI50 (MCF7 breast) > 100 µM | GI50 (HOP-62 NSCLC) > 100 µM | GI50 (KM12 colon) 35.1 µM | GI50 (SK-MEL-5 melanoma) > 100 µM | GI50 (SF-268 CNS) > 100 µM | GI50 (A549 NSCLC) > 100 µM | GI50 (NCI-H23 lung) > 100 µM | GI50 (A498 renal) > 100 µM | GI50 (SW-620 colon) > 100 µM | GI50 (NCI-H460 lung) > 100 µM | GI50 (OVCAR-5 ovarian) > 100 µM
> 100 µM: TGI (ACHN renal) | TGI (IGROV1 ovarian) | TGI (PC-3 prostate) | TGI (SK-OV-3 ovarian) | TGI (SF-539 CNS) | TGI (T-47D breast) | TGI (DU-145 prostate) | TGI (MOLT-4 leukemia) | TGI (K-562 leukemia) | TGI (UACC-62 melanoma) | TGI (COLO 205 colon) | TGI (786-0 renal) | TGI (HL-60(TB) leukemia) | TGI (HCT-15 colon) | TGI (NCI-H226 lung) | TGI (LOX IMVI melanoma) | TGI (HCT-116 colon) | TGI (UO-31 renal) | TGI (HCC-2998 colon) | TGI (HT29 colon) | TGI (RPMI-8226 leukemia) | TGI (MALME-3M melanoma) | TGI (SNB-19 CNS) | TGI (MDA-MB-435) | TGI (BT-549 breast) | TGI (OVCAR-4 ovarian) | TGI (M14 melanoma) | TGI (SK-MEL-28 melanoma) | TGI (RXF 393 renal) | TGI (HOP-92 NSCLC) | TGI (OVCAR-8 ovarian) | TGI (SN12C renal) | TGI (TK-10 renal) | TGI (SF-295 CNS) | TGI (CCRF-CEM leukemia) | TGI (OVCAR-3 ovarian) | TGI (EKVX NSCLC) | TGI (NCI/ADR-RES ovarian) | TGI (SNB-75 CNS) | TGI (UACC-257 melanoma) | TGI (MDA-MB-231 breast) | TGI (SR leukemia) | TGI (U251 CNS) | TGI (MCF7 breast) | TGI (HOP-62 NSCLC) | TGI (KM12 colon) | TGI (SK-MEL-5 melanoma) | TGI (SF-268 CNS) | TGI (A549 NSCLC) | TGI (NCI-H23 lung) | TGI (A498 renal) | TGI (SW-620 colon) | TGI (NCI-H460 lung) | TGI (OVCAR-5 ovarian)

CCNCCCn1c2c(c3ccc(Cl)cc3c1=O)C(=O)c1cc(OC)cnc1-2
21.4 µM: TGI (UACC-62 melanoma)
2.5 µM: TGI (HCT-15 colon)
4.54 µM: TGI (SK-MEL-28 melanoma)
1.62 µM: TGI (MOLT-4 leukemia)
2.4 µM: TGI (OVCAR-4 ovarian)
3.23 µM: TGI (MDA-MB-231 breast)
2.53 µM: TGI (NCI/ADR-RES ovarian)
32.9 µM: TGI (UACC-257 melanoma)
1.64 µM: TGI (SNB-75 CNS)
2.26 µM: TGI (KM12 colon)
1.35 µM: TGI (ACHN renal)
1.43 µM: TGI (HOP-62 NSCLC)
2.55 µM: TGI (MDA-MB-435)
5.04 µM: TGI (NCI-H226 lung)
2.03 µM: TGI (HT29 colon)
1.57 µM: TGI (COLO 205 colon)
20.3 µM: TGI (BT-549 breast)
19.6 µM: TGI (OVCAR-3 ovarian)
4.38 µM: TGI (A498 renal)
2.47 µM: TGI (NCI-H23 lung)
1.75 µM: TGI (CCRF-CEM leukemia)
4.31 µM: TGI (HS 578T breast)
29.2 µM: TGI (SK-MEL-2 melanoma)
3.31 µM: TGI (OVCAR-5 ovarian)
2.78 µM: TGI (EKVX NSCLC)
2.04 µM: TGI (SF-268 CNS)
1.71 µM: TGI (SF-539 CNS)
1.76 µM: TGI (SW-620 colon)
1.58 µM: TGI (T-47D breast)
16.8 µM: TGI (CAKI-1 renal)
3.22 µM: TGI (OVCAR-8 ovarian)
2.99 µM: TGI (HCC-2998 colon)
1.73 µM: TGI (U251 CNS)
3.12 µM: TGI (MALME-3M melanoma)
active: GI50 (ACHN renal) 0.154 µM | GI50 (T-47D breast) 0.161 µM | GI50 (DU-145 prostate) 0.208 µM | GI50 (MOLT-4 leukemia) 0.0384 µM | GI50 (COLO 205 colon) 0.146 µM | GI50 (HCT-116 colon) 0.203 µM | GI50 (HT29 colon) 0.327 µM | GI50 (NCI-H522 lung) 0.263 µM | GI50 (CCRF-CEM leukemia) 0.0239 µM | GI50 (NCI/ADR-RES ovarian) 0.282 µM | GI50 (SNB-75 CNS) 0.262 µM | GI50 (CAKI-1 renal) 0.0472 µM | GI50 (U251 CNS) 0.219 µM | GI50 (HOP-62 NSCLC) 0.122 µM | GI50 (SF-268 CNS) 0.33 µM | GI50 (A498 renal) 0.358 µM | GI50 (SW-620 colon) 0.0316 µM
2.06 µM: TGI (M14 melanoma)
24.5 µM: TGI (NCI-H522 lung)
2.49 µM: TGI (SK-MEL-5 melanoma)
2.79 µM: TGI (SN12C renal)
27.2 µM: TGI (HOP-92 NSCLC)
2.37 µM: TGI (UO-31 renal)
1.94 µM: TGI (SK-OV-3 ovarian)
2.31 µM: TGI (A549 NSCLC)
inactive: GI50 (SK-OV-3 ovarian) 0.475 µM | GI50 (SF-539 CNS) 0.506 µM | GI50 (UACC-62 melanoma) 0.532 µM | GI50 (HCT-15 colon) 1.02 µM | GI50 (NCI-H226 lung) 1.4 µM | GI50 (UO-31 renal) 0.543 µM | GI50 (HCC-2998 colon) 1.28 µM | GI50 (RPMI-8226 leukemia) 1.25 µM | GI50 (MALME-3M melanoma) 1.37 µM | GI50 (SNB-19 CNS) 0.585 µM | GI50 (MDA-MB-435) 1.15 µM | GI50 (BT-549 breast) 0.813 µM | GI50 (OVCAR-4 ovarian) 0.542 µM | GI50 (M14 melanoma) 0.518 µM | GI50 (SK-MEL-28 melanoma) 1.92 µM | GI50 (RXF 393 renal) 1.03 µM | GI50 (HOP-92 NSCLC) 3.01 µM | GI50 (OVCAR-8 ovarian) 0.694 µM | GI50 (SN12C renal) 0.675 µM | GI50 (HS 578T breast) 1.74 µM | GI50 (OVCAR-3 ovarian) 2.13 µM | GI50 (EKVX NSCLC) 0.859 µM | GI50 (UACC-257 melanoma) 14.5 µM | GI50 (MDA-MB-231 breast) 1.5 µM | GI50 (SK-MEL-2 melanoma) 12.5 µM | GI50 (KM12 colon) 0.755 µM | GI50 (SK-MEL-5 melanoma) 0.813 µM | GI50 (A549 NSCLC) 0.459 µM | GI50 (NCI-H23 lung) 0.539 µM | GI50 (OVCAR-5 ovarian) 1.48 µM
2.43 µM: TGI (RXF 393 renal)
3.65 µM: TGI (RPMI-8226 leukemia)
1.56 µM: TGI (DU-145 prostate) | TGI (HCT-116 colon)
2.66 µM: TGI (SNB-19 CNS)
